Measurements from ChEMBL document CHEMBL1201862, “PubChem BioAssay data set” (2004).
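Where inhibition never reached the appropriate level, the endpoint shown equals the highest concentration tested. Otherwise, values were interpolated linearly from a five-concentration, 48-hour dose response in 96-well plates. At the GI50, growth is halved.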 Active and inactive are the calls of the source. Rule as the data show it: active = GI50 up to about 1.1 µM and inactive = higher.

How the values were obtained:
Test in all cases: NCI anticancer screen, dose series, 48 h
[1] = test system: DU-145
[2] = test system: UACC-257
[3] = test system: HCT-116
[4] = test system: KM12
[5] = test system: HCT-15
[6] = test system: TK-10
[7] = test system: CAKI-1
[8] = test system: NCI-H460
[9] = test system: OVCAR-8
[10] = test system: A549
[11] = test system: SW-620
[12] = test system: MOLT-4
[13] = test system: CCRF-CEM
[14] = test system: MDA-MB-435
[15] = test system: OVCAR-3
[16] = test system: SF-295
[17] = test system: HOP-62
[18] = test system: SK-MEL-28
[19] = test system: HL-60
[20] = test system: SR

Row | SMILES | GI50 [1] | GI50 [2] | GI50 [3] | GI50 [4] | GI50 [5] [µM] | GI50 [6] | GI50 [7] | GI50 [8] | GI50 [9] | GI50 [10] | GI50 [11] | GI50 [12] | GI50 [13] | GI50 [14] | GI50 [15] | GI50 [16] | GI50 [17] | GI50 [18] | GI50 [19] | GI50 [20]
1 | Cc1ccc(S(=O)(=O)c2ccc([N+](=O)[O-])o2)cc1 | 3.66 µM (inactive) | 1.87 µM (inactive) | 1.64 µM (inactive) | 4.43 µM (inactive) | 1.17 | 1.57 µM (inactive) | 0.597 µM (active) | 14.1 µM (inactive) | 0.906 µM (active) | 8.81 µM (inactive) | 0.468 µM (active) | 0.337 µM (active) | 0.242 µM (active) | 1.81 µM (inactive) | 1.76 µM (inactive) | 19.8 µM (inactive) | 17.7 µM (inactive) | 1.98 µM (inactive) | – | –
2 | CCc1nc2ccc(C(F)(F)F)cc2[nH]c1=O | > 100 µM (inactive) | > 100 µM (inactive) | > 100 µM (inactive) | > 100 µM (inactive) | > 100 | > 100 µM (inactive) | 80.7 µM (inactive) | > 100 µM (inactive) | > 100 µM (inactive) | > 100 µM (inactive) | > 100 µM (inactive) | > 100 µM (inactive) | > 100 µM (inactive) | > 100 µM (inactive) | > 100 µM (inactive) | > 100 µM (inactive) | > 100 µM (inactive) | > 100 µM (inactive) | > 100 µM (inactive) | –
3 | CC(C)(C)c1ccc2c(c1)C#Cc1cc3c(cc1OCCCO2)C#Cc1cc(C(C)(C)C)ccc1OCCCO3 | > 100 µM (inactive) | > 100 µM (inactive) | > 100 µM (inactive) | > 100 µM (inactive) | 2.45 | > 100 µM (inactive) | > 100 µM (inactive) | > 100 µM (inactive) | > 100 µM (inactive) | > 100 µM (inactive) | > 100 µM (inactive) | > 100 µM (inactive) | 42.4 µM (inactive) | > 100 µM (inactive) | > 100 µM (inactive) | > 100 µM (inactive) | > 100 µM (inactive) | > 100 µM (inactive) | > 100 µM (inactive) | –
4 | O=C(O)c1ccccc1C(=O)c1ccco1 | – | > 100 µM (inactive) | > 100 µM (inactive) | > 100 µM (inactive) | > 100 | > 100 µM (inactive) | > 100 µM (inactive) | > 100 µM (inactive) | > 100 µM (inactive) | > 100 µM (inactive) | > 100 µM (inactive) | > 100 µM (inactive) | > 100 µM (inactive) | – | > 100 µM (inactive) | > 100 µM (inactive) | > 100 µM (inactive) | > 100 µM (inactive) | > 100 µM (inactive) | > 100 µM (inactive)
5 | O=[N+]([O-])/C(C(Cl)=C(Cl)Cl)=C(\Nc1cccc2cccnc12)Sc1ccccc1 | 22.9 µM (inactive) | 19.8 µM (inactive) | 19.4 µM (inactive) | 12.6 µM (inactive) | 17.5 | – | 22 µM (inactive) | 34.4 µM (inactive) | – | 29.9 µM (inactive) | 18 µM (inactive) | 12.9 µM (inactive) | 27.7 µM (inactive) | 18.7 µM (inactive) | 11.4 µM (inactive) | 19 µM (inactive) | 23.4 µM (inactive) | 20.4 µM (inactive) | – | –
6 | COC(=O)[C@@H]1[C@H]2CC[C@]3(C)[C@@H](OC(C)=O)CC[C@H]3[C@@H]2CC[C@H]1C1(C)SCCS1 | 35.9 µM (inactive) | 25.2 µM (inactive) | 19.6 µM (inactive) | 28.6 µM (inactive) | 32 | 75 µM (inactive) | 41.6 µM (inactive) | 29.3 µM (inactive) | 25 µM (inactive) | 25.1 µM (inactive) | 31.9 µM (inactive) | 24.8 µM (inactive) | 36.9 µM (inactive) | 16.3 µM (inactive) | 33.1 µM (inactive) | 24.8 µM (inactive) | 23.1 µM (inactive) | 34.7 µM (inactive) | 18.2 µM (inactive) | –
7 | CC(C#N)Nc1ccc(Oc2ccc(C(C)(C)c3ccc(Oc4ccc(NC(C)C#N)cc4)cc3)cc2)cc1 (stereo unspecified) | – | 8.85 µM (inactive) | 30.7 µM (inactive) | > 100 µM (inactive) | > 100 | > 100 µM (inactive) | > 100 µM (inactive) | > 100 µM (inactive) | > 100 µM (inactive) | > 100 µM (inactive) | > 100 µM (inactive) | 16.5 µM (inactive) | – | > 100 µM (inactive) | > 100 µM (inactive) | > 100 µM (inactive) | – | > 100 µM (inactive) | – | –
8 | CC(=O)N(C(C)=O)n1c(-c2ccccc2)n[nH]c1=O | > 100 µM (inactive) | > 100 µM (inactive) | > 100 µM (inactive) | > 100 µM (inactive) | > 100 | > 100 µM (inactive) | – | – | > 100 µM (inactive) | > 100 µM (inactive) | > 100 µM (inactive) | > 100 µM (inactive) | > 100 µM (inactive) | > 100 µM (inactive) | > 100 µM (inactive) | > 100 µM (inactive) | > 100 µM (inactive) | > 100 µM (inactive) | – | > 100 µM (inactive)
9 | CSc1nc2ccccc2c(=O)n1/N=C1\C(=O)N(CN2CCOCC2)c2ccc(Cl)cc21 | 18.5 µM (inactive) | 19.8 µM (inactive) | 22.4 µM (inactive) | 29.5 µM (inactive) | 22.9 | 16.9 µM (inactive) | 25.5 µM (inactive) | 15.2 µM (inactive) | 39.6 µM (inactive) | 35.4 µM (inactive) | 17.6 µM (inactive) | 10.9 µM (inactive) | 10.6 µM (inactive) | 28.4 µM (inactive) | 54.5 µM (inactive) | 46.1 µM (inactive) | 34.3 µM (inactive) | 56.2 µM (inactive) | 8.61 µM (inactive) | –
10 | Nc1ncnc2c1ncn2CC(OCP(=O)(O)O)Oc1ccccc1 (stereo unspecified) | > 100 µM (inactive) | > 100 µM (inactive) | > 100 µM (inactive) | > 100 µM (inactive) | > 100 | > 100 µM (inactive) | > 100 µM (inactive) | – | – | > 100 µM (inactive) | > 100 µM (inactive) | – | > 100 µM (inactive) | > 100 µM (inactive) | > 100 µM (inactive) | > 100 µM (inactive) | > 100 µM (inactive) | > 100 µM (inactive) | – | –
11 | CCn1ncc2c1nc(-c1ccccc1)c[n+]2[O-] | 5.82 µM (inactive) | > 100 µM (inactive) | 63.7 µM (inactive) | > 100 µM (inactive) | > 100 | – | – | > 100 µM (inactive) | 75 µM (inactive) | > 100 µM (inactive) | – | > 100 µM (inactive) | > 100 µM (inactive) | > 100 µM (inactive) | > 100 µM (inactive) | > 100 µM (inactive) | 2.22 µM (inactive) | > 100 µM (inactive) | – | > 100 µM (inactive)
12 | CC(=O)O[C@H]1[C@@H]2OC(=O)[C@@](O)(CC3CCCO3)[C@@H]2CC(=O)[C@](C)(O)CC/C=C(\C)CCC[C@@H]1C (stereo partly specified) | 37.8 µM (inactive) | 70.3 µM (inactive) | – | 67.6 µM (inactive) | 34.3 | 40.8 µM (inactive) | 19.9 µM (inactive) | > 100 µM (inactive) | 35.6 µM (inactive) | 40.6 µM (inactive) | 22.5 µM (inactive) | – | 22.7 µM (inactive) | 31.7 µM (inactive) | 63.2 µM (inactive) | 77.3 µM (inactive) | – | 20.3 µM (inactive) | 21.5 µM (inactive) | –
13 | COc1ccc(/C=C2\N=C3Sc4c([nH]cnc4=O)N3C2=O)cc1 | > 100 µM (inactive) | > 100 µM (inactive) | > 100 µM (inactive) | > 100 µM (inactive) | > 100 | > 100 µM (inactive) | > 100 µM (inactive) | – | > 100 µM (inactive) | > 100 µM (inactive) | > 100 µM (inactive) | > 100 µM (inactive) | > 100 µM (inactive) | > 100 µM (inactive) | > 100 µM (inactive) | > 100 µM (inactive) | > 100 µM (inactive) | > 100 µM (inactive) | > 100 µM (inactive) | –
14 | O=C(O)c1ccc(Nc2ccnc3cc(Cl)ccc23)cc1O | > 100 µM (inactive) | > 100 µM (inactive) | > 100 µM (inactive) | > 100 µM (inactive) | > 100 | 61.4 µM (inactive) | > 100 µM (inactive) | > 100 µM (inactive) | > 100 µM (inactive) | > 100 µM (inactive) | > 100 µM (inactive) | > 100 µM (inactive) | > 100 µM (inactive) | > 100 µM (inactive) | > 100 µM (inactive) | > 100 µM (inactive) | 45.7 µM (inactive) | > 100 µM (inactive) | > 100 µM (inactive) | –
15 | CN(C)/N=N/c1nc2c(c(=O)n(C)c(=O)n2C)n1CC1CO1 (stereo unspecified) | 14.4 µM (inactive) | 16.6 µM (inactive) | 11.7 µM (inactive) | 13.4 µM (inactive) | 14.2 | 11.9 µM (inactive) | 13.9 µM (inactive) | 10.1 µM (inactive) | 14.5 µM (inactive) | 20 µM (inactive) | 15 µM (inactive) | 12.3 µM (inactive) | 23.8 µM (inactive) | 16.7 µM (inactive) | 15.8 µM (inactive) | 17 µM (inactive) | 12.1 µM (inactive) | 20.7 µM (inactive) | 4 µM (inactive) | –
16 | O=c1[nH]c(=O)n([C@H]2C[C@H](O)[C@@H](CO)O2)cc1Br [BROXURIDINE] | > 100 µM (inactive) | > 100 µM (inactive) | > 94 µM (inactive) | > 100 µM (inactive) | > 63.5 | > 100 µM (inactive) | > 100 µM (inactive) | > 100 µM (inactive) | > 100 µM (inactive) | > 100 µM (inactive) | > 100 µM (inactive) | > 100 µM (inactive) | > 64.4 µM (inactive) | > 100 µM (inactive) | 25.9 µM (inactive) | > 100 µM (inactive) | > 100 µM (inactive) | > 86.5 µM (inactive) | – | –
